Patent US20090211893A1, “Photo-Activatable Amino Acids” (priority 2005, published 2009)

Legend:
[1] = system: E. coli beta-galactosidase; assay: Activity of beta-galactosidase expressed in cells grown with photo-amino acids; type: cell-based, monkey; conditions: COS 7 cells, 20 h in LM-2 with photo-amino acid; percent ± SD (n = 6) of value in DMEM + FCS
From the text: We furthermore tested, whether proteins produced by cells grown with photo-amino acids are functional or not. For that, we transfected cells with GFP-fusion constructs of the small GTPase Rab5 and of mutated Rab5 that is constitutively activated (GFP-Rab5QL) or dominant negative (GFP-Rab5SN)^19 and monitored the GFP fluorescence by confocal microscopy. Four hours after transfection, when cells were switched to media containing photo-amino acids, no GFP signal was detectable (see FIG. 7). […] Both, staining intensity and localization were unaffected by the presence of either of the photo-amino acids. Taking into account a frequency of substitution of photo-Met for Met of 35% (see below) and the amounts of Met in Rab5 and GFP, more than 80% of the fusion protein will have photo-Met in both the Rab5- and the GFP-part of the fusion, more than 99% in at least one of the two parts. […] To corroborate this with a quantitative assay, we measured the activity of beta-galactosidase that was expressed in the absence or presence of photo-amino acids (see Table 4). Activity in LM-2 labeling medium was 79% of that in full DMEM. The addition of either of the three photo-amino acids or of a mixture of photo-Met and photo-Leu had no significant additional effect. E. coli beta-galactosidase contains 23 methionines of which on average 8 would be replaced by photo-Met; less than 0.01% of the protein are expected to have no substitution by photo-Met. We conclude that photo-amino acids are non-toxic to cultivated mammalian cells and can, at least partially, functionally replace branched chain amino acids and methionine.

COS7 cells = assay: Incorporation of [1-14C]photo-Met and [3H]Phe into newly synthesized protein; type: cell-based, monkey
Protocol: Cells were washed 6 times with PBS and lysed in 0.5% Triton X-100, 0.2% sodium deoxycholate. Aggregated DNA was removed, protein was precipitated^43, the pellet was redissolved in 0.3 ml 0.5% SDS and subjected to a second round of precipitation. […] The dried pellet was redissolved and processed for scintillation counting (data of Table 1 and FIG. 4b) or processed as follows for amino acid analysis (FIG. 2b): the pellet was dissolved in 600 µl 50 mM NH4HCO3, 0.5% SDS, 3 mM CaCl2 containing 0.25 mg pronase (Roche) followed by incubation at 37° C. for 20 h. The sample was lyophilized, dissolved in 600 μl of 7 N HCl containing 4 mg of glutamic acid and 6 mg of photo-Met and heated to 70° C. for 24 h. A Dowex 50WX8 column (1.6×24 cm) was prepared^18 and equilibrated with 0.1 M sodium citrate pH 3.8. The sample was concentrated to 50 μl in a speed-vak, diluted to 1 ml with 0.1 M sodium citrate pH 3.8, and loaded onto the column. The column was eluted at 24° C. at a flow rate of 20 ml/h with 70 ml 0.1 M sodium citrate pH 3.8, 26 ml 0.1 M sodium citrate pH 4.3 and 100 ml of 0.1 M sodium citrate pH 4.5. Fractions of 3 ml were collected and assayed for absorbance at 350 nm, radioactivity by scintillation counting, and amino groups by the fluorescamine method^44.
To decrease competition for activation by tRNA synthetases, media devoid of the structurally related amino acids Leu and Met (LM-2) or, for some experiments, devoid of Leu, Met, Ile and Val (LM-4) were used. Proteins incorporated radioactivity as shown by autoradiography after separation by SDS-PAGE (FIG. 2a, lane 3). […] 88% of the radioactivity in the labeled proteins was intact [1-^14C]photo-Met (FIG. 2b, photo-Met). A small peak eluting slightly earlier than glutamic acid (FIG. 2 B, Glu) contained 7% of the radioactivity. This peak was also observed if free [1-^14C]photo-Met was heated with HCl under the conditions of the hydrolysis (data not shown) and therefore represents a product of thermal decomposition of the amino acid. Under the conditions employed, radioactivity originating from degradation/re-integration would be expected to appear as aspartate and glutamate (oxidative release of [^14C]CO2, metabolism via pyruvate carboxylase, citric acid cycle and transamination to Gln and Asn that will be hydrolyzed to Glu and Asp by hot HCl). However, no radioactivity was incorporated via this pathway. We conclude that at least 95% of incorporated radioactivity represents intact [1-^14C]photo-Met. To obtain quantitative data on the frequency of incorporation of photo-Met into newly synthesized protein, we performed co-labeling with [1-^14C]photo-Met and [^3H]Phe. […] Two in three hundred amino acids in newly synthesized protein will be photo-Met.

HA-tagged human PGRMC1 = assay: Competition of PGRMC1 cross-linking by natural amino acids; type: cell-based; conditions: 3 mM competing amino acid, COS7 cells in LM-4
Protocol: FIG. 4: Specificity of incorporation and cross-linking by photo-Met and photo-Leu. COS7 cells were transfected with HA-tagged human PGRMC1 and were grown in LM-4 in the absence or presence of photo-Leu (A) or photo-Met (B) with addition of 3 mM of the indicated competing amino acid. cross-linked products formed after UV-irradiation were detected by SDS-PAGE followed by western blotting against the HA-epitope. (C) COS7 cells were grown in the presence of 1.7 mM [1-^14C]photo-Met, a constant trace amount of [^3H]Phe and 3 mM of competing unlabeled amino acids as indicated in the legend. Protein was precipitated and protein-bound radioactivity was determined by scintillation counting. […] The control value obtained in the absence of competing amino acid (con) is set to 100. Data are average±SD of triplicate determinations.
If so, addition of the complementary naturally occurring amino acid should strongly reduce incorporation and inhibit photo-crosslinking. […] To find out if competition for cross-linking reflects competition for incorporation, we competed incorporation of [1-^14C]photo-Met with the same set of amino acids (FIG. 4c). […] It should be noted that Met, Val, Leu and Ile all are transported into cells by the L-type transport system^25, which presumably also transports the three photo-amino acids. The strong difference in competition by Met and Leu versus Val and Ile excludes competition at the level of uptake.

CC1(CCC(N)C(=O)O)N=N1 [photo-Met, L-2-amino-5,5′-azi-hexanoic acid]
beta-galactosidase activity [1]: 73 ± 5% | frequency of substitution of photo-Met for Met (COS7 cells): 35% | competition of cross-linking by Met, Val, Leu and Ile (HA-tagged human PGRMC1): mainly by Met, and to a lower extent by Leu | effect of Val and Ile on cross-linking (HA-tagged human PGRMC1): did not compete, but even enhance
